Measurements reported in patent US7247615B2, “Peptide agonists of prostate-specific antigen and uses therefor” (priority 2001, dated 2007).
Values joined by “and” are separate entries in the source; they are usually repeats but may differ in a detail not shown here. Identical values can stand only once.

What was measured:
[1] = system: T-PSA-3 cells; experiment: Cytometric Bead Array cytokine production by peptide-stimulated T cells; type: cell-based, human; settings: T-PSA-3 + peptide-pulsed autologous B cells, 24 h supernatant
Experimental: (§1) Detection of Cytokines. Supernatant of T cells exposed for 24 h to peptide-pulsed infected DC, rV-PSA infected DC, or rV-PSA-3A infected DC, in IL-2-free medium at various responder: stimulator ratios, were screened for secretion of IFN-γ using an ELISA kit (R & D Systems, Minneapolis, Minn.). The results were calculated as pg/ml. A Cytometric Bead Array (CBA) system (BD PharMingen, San Diego, Calif.) was also used to determine the secretion of multiple cytokines by specific T cell lines. The CBA system uses the fluorescence detection by flow cytometry to measure soluble analytes in a particle-based immunoassay. The BD human Th1/Th2 cytokine CBA Kit was employed to measure IL-2, IL-4, IL-5, IL-10, TNF-α, and IFN-γ protein levels in a single sample. The cytokine capture beads were mixed with PE-conjugated detection antibodies and then incubated with recombinant cytokine standards or test samples to form sandwich complexes. The samples results were generated in graphical and tabular format using BD CBA analysis software. The results were calculated as pg/ml.
The cytokine profile of T cells stimulated with APCs pulsed with either the PSA-3 or the PSA-3A peptide was then analyzed. The T cell line derived using the PSA-3 peptide was used in these studies, and the APCs used were autologous B cells. A Cytometric Bead Array (CBA) assay was used for analysis (see Examples section) using supernatant fluids obtained 24 h after stimulation. FIGS. 6A–6C illustrate […] of the 10 internal standards used for the calibration of the results obtained in this assay. FIGS. 6D–6F show the levels of each of six cytokines produced by T cells stimulated with APCs pulsed with no peptide, PSA-3A peptide, and PSA-3 peptide, respectively. […] The results obtained for IL-5 will be discussed below (Conclusions section).

[2] = system: DCs; experiment: IL-12 production by peptide-pulsed DCs in the presence of T cells; type: cell-based, human
Experimental: It has been previously shown that the activation of T cells by peptidepulsed DCs is related to the level of IL-12 production by the DCs. Studies were therefore conducted to determine the levels of IL-12 production by DCs pulsed with PSA-3 and PSA-3A peptides in the presence of T cells. […] When DCs pulsed with the PSA3A peptide were incubated with both T cell lines, the DCs incubated with the T-PSA-3A line again produced higher levels of IL-12 than those peptide-pulsed DCs incubated with the T cell line T-PSA-3 (Table 3).

[3] = system: T-PSA-3A cells; experiment: IFN-γ production by T cell line stimulated with peptide-pulsed DCs (ELISA); type: cell-based, human; settings: peptide 25 μg/ml
Experimental: as §1
Table 2: Production of IFN-γ by a T cell line stimulated with PSA-3 or agonist PSA-3A peptides. The PSA-specific T cell line T-PSA-3A was used as effector cells at IVS-3. T-PSA-3A cells were stimulated with irradiated HLA-A2 positive allogeneic DCs either pulsed with PSA-3 or PSA-3A peptide at a concentration of 25 μg/ml and an effector-to-APC ratio of 10:1. After 24-h culture supernatants were collected and screened for the secretion of IFN-γ. APC=antigen […].

[4] = system: CD8+ cells (T-PSA-3); experiment: Apoptosis (TUNEL) assay of peptide-stimulated T cells; type: cell-based, human; settings: T cells stimulated with peptide-pulsed autologous B cells, IVS-5, TUNEL
From the text: FIGS. 5A–5C. DNA fragmentation in peptide stimulated T cells using the TUNEL assay. Apoptosis of CD8^+ cells activated by PSA peptide pulsed autologous B cells. FIG. 5A: T-PSA-3 cells stimulated with B cells with no peptide; FIG. 5B: T-PSA-3 cells stimulated with B cells pulsed with PSA-3 peptide; FIG. 5C: T-PSA-3 cells stimulated with B cells pulsed with PSA-3A peptide. Numbers in each histogram indicate percent of apoptotic cells (cells above line) as described in the Examples section.
Apoptosis Assay. T cells were incubated for 48 h in the presence of peptide-pulsed autologous B cells as described in the IVS procedure, above, and replated to 96-well plates for 24 h. Apoptosis was analyzed using the terminal deoxynucleotidyl transferase-mediated nick-end labeling (TUNEL) assay (Y. Gavrieli et al., 1992, J. Cell Biol. 119:493–501).

[5] = system: HLA-A2/K^b transgenic mice; experiment: Immunization of HLA-A2.1/Kb transgenic mice with peptide-pulsed DCs, IFN-γ production by T cells; type: in vivo, mouse; settings: 24 h
From the text: Transgenic Mice. HLA-A2.1/K^b transgenic mice were kindly provided by Dr. L. Sherman (Scripps Laboratories, San Diego, Calif.). Transgenic mice express the product of the HLA-A2.1/Kb chimeric gene in which the alpha-3 domain of the heavy chain is replaced by mouse H-2/K^b domain, but the HLA-A2.1 alpha-1 and alpha-2 domains are unaltered (A. Vitiello et al., 1991, J. Exp. Med. 173:1007–1015; V. H. Engelhard et al., 1991, J. Immunol. 46:1226–1232).
In Vivo Immunization and Murine T cell Cultures. Three groups of HLA-A2.1/K^b transgenic mice (three mice per group) were immunized s.c. (subcutaneously) in the base of the tail with PSA-3 peptide-pulsed HLA-A2.1/K^b DC, PSA-3A peptide-pulsed DCs from HLA-A2.1/K^b transgenic mice, or DCs only. Peptides were used at a concentration of 50 μg/ml and DCs were used at 1×10^6 cell/mouse/injection. A total of three injections were given to each animal, 2 weeks apart. Mice injected with DCs only were used as controls. Mice were sacrificed 7 days after the last injection, and spleen cells were restimulated in vitro with 25 μg/ml of PSA-3 or PSA3A peptide with irradiated syngeneic spleen cell for 6 days. The cytokine production of these bulk cultures was tested. Peptide-pulsed Jurkat A2 (JA2 K^b) cells were used as stimulator cells. Jurkat 0201 K^b cells are stable transfectants of the human T cell leukemia line, Jurkat, which express the product of HLA-A0201K^b climeric gene (L. A. Sherman et al., 1992, Science 258:815–818).
The HLA-A2/K^b transgenic mouse has been previously reported to aid in the determination of the immunogenicity of HLA-A2 peptides for humans. This in vivo system was thus employed to further analyze and compare the immunogenicity of the PSA-3A peptide with that of the native PSA-3 peptide. DCs from the HLA-A2/K^b transgenic mice were pulsed with either the PSA-3 or the PSA-3A peptide and used to vaccinate HLA-A2b mice. DCs alone (no peptide) were also used as a control vaccine. After three vaccinations at 2-week intervals, T cells were isolated from splenocytes obtained 2 weeks after the last vaccination. The T cells were then incubated with Jurkat A2/K^b cells pulsed with the PSA-3 peptide, the PSA-3A peptide, or no peptide, and production of INF-γ was measured from supernatants after 24 h.

[6] = target: T1, HLA-A2 (Homo sapiens, UniProt P04439, D140Y/D185E/D98H/E176V/E277Q/G131W/G231S/I119V/I121R/I166T/I218V/L300P/L318F/N151K/N90K/P208A/P217A/Q86G/Q94H/R138H/R169H/T345S); experiment: Peptide binding to HLA-A2 on T2A2 cells (flow cytometry); settings: peptide 0 to 50 μg/ml, FIG. 1A
T1 construct: endogenous in cells; host or cells: T2A2 / 174CEM-T2 (T2) transport deletion mutant cell line
Experimental: Single-color flow cytometric analysis. The method for single-color flow cytometric analysis was described previously (F. Guadagni et al., 1990, Cancer Res. 50:6248–6255). Briefly, cells were washed three times with cold Ca^2+ and Mg^2+-free DPBS and then stained for 1 h with mAb against HLA-A2 (A2,69, One Lambda, Inc., Canoga Park, Calif.), using 10 μg of the 1× working dilution per 10^6 cells. Mineral oil plasmacytoma-104E (Cappel/Organon Teknika Corp., West Chester, Pa.) was used as an isotype control. The cells were washed three times and incubated with a 1:100 dilution of fluorescein isothiocyanate (FITC)-labeled goat anti-mouse immunoglobulin (IgG) (Kirkegaard and Perry Laboratories, Gaithersburg, Md.). The cells were immediately analyzed using a Becton Dickinson FACScan equipped with a blue laser with an excitation of […] at 488 nm. Data were gathered from 10,000 live cells, stored and used to generate results.
Peptide Binding to HLA-A2. […] Briefly, 1×10^6 cells in serum-free Iscove's modified Dulbecco's complete medium were incubated with peptides at a concentration of 50 μg/ml in 24 well culture plates at 37° C. in 5% CO2. Flow cytometry for peptide binding was performed using T2 cells and single-color analysis. After cells were washed three times in DPBS, as described above, they were incubated for 1 h with HLA-A2 specific MAb (One Lambda, Inc.) using 10 μg of a 1× working dilution per 10^6 cells. UPC-10 (Cappel/Organon Teknika) was used as isotype control. The cells were washed three times and incubated with 1:100 dilution of FITC-labeled anti-mouse IgG (Becton Dickinson). Analysis was conducted with the FACScan, as described above. Cells were maintained on ice during all cell preparation and staining.
The four analogs were then tested for binding to the HLA-A2 positive T2A2 cells as described in the Examples section. The NCA peptide was previously shown to not bind to HLA-A2, and was used as a negative […] control. Peptides were added to T2A2 cells at concentrations of 0 to 50 μg/ml.

Sequence | Production of IL-4 [1] | Production of IL-10 [1] | Production of TNF-α [1] | IL-12 PRODUCTION ([2]; APC DC, T cell line T-PSA-3, peptide 25 μg/ml, 10:1, 24 h, IVS-4) [pg/ml/5 × 10^5 DC] | IL-12 PRODUCTION ([2]; APC DC, T cell line T-PSA-3A, peptide 25 μg/ml, 10:1, 24 h, IVS-4) [pg/ml/5 × 10^5 DC] | IL-12 PRODUCTION ([2]; no APC, T cell line T-PSA-3, peptide 25 μg/ml, 24 h) [pg/ml/5 × 10^5 DC] | IL-12 PRODUCTION ([2]; no APC, T cell line T-PSA-3A, peptide 25 μg/ml, 24 h) [pg/ml/5 × 10^5 DC] | PRODUCTION OF IFN-γ ([3]; APC DCs, T-PSA-3A T cells present, effector-to-APC 10:1, 24 h, IVS-3) [pg/mL] | PRODUCTION OF IFN-γ ([3]; APC DCs, no T cell, 24 h) [pg/mL] | PRODUCTION OF IFN-γ ([3]; no APC, T-PSA-3A T cells present, 24 h) [pg/mL] | Apoptotic CD8+ cells [4] | Production of IFN-γ ([5]; label = peptide pulsed on immunizing DCs, Jurkat A2/K^b cells pulsed with PSA-3A (25 μg/ml)) | Production of IFN-γ ([5]; label = peptide pulsed on immunizing DCs, Jurkat A2/K^b cells with no peptide) [pg/ml/10^6 cells] | Production of IFN-γ ([5]; label = peptide pulsed on immunizing DCs, T cells restimulated with Jurkat A2/K^b cells pulsed with PSA-3 (25 μg/ml)) | Production of IFN-γ ([5]; mice immunized with DCs (no peptide), label = peptide pulsed on Jurkat A2/K^b cells) [pg/ml/10^6 cells] | Binding to HLA-A2 (relative fluorescence, MFI) [6]
VISNDVCAQV (SEQ ID NO:1) [PSA-3, reference compound] | Low or undetectable levels | Low or undetectable levels | No TNF-α could be detected | 5.0 | 10.5 | <0.6 | <0.6 | 280 | <15 | <15 | 4.9% and 4.5% | 1,969.0 pg/ml/10^6 cells | <37.0 | 1,908.0 pg/ml/10^6 cells | <37.0 | 
VISNDVCAQL (SEQ ID NO:2) [1–163] |  |  |  |  |  |  |  |  |  |  |  |  |  |  |  | no binding
YISNDVCAQV (SEQ ID NO:4) [Y154] |  |  |  |  |  |  |  |  |  |  |  |  |  |  |  | higher levels than PSA-3
